Test results: ChEMBL document CHEMBL1201861, “Genomics of Drug Sensitity in Cancer screening data, Wellcome Trust Sanger Institute”

What was measured:
Test in all cases: cells
CTV-1 = type: functional, cell-based, Homo sapiens; conditions: Homo sapiens, CTV-1;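 also: growth inhibition of the cell line, read out with a cell viability assay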
Description: SANGER: Inhibition of human CTV-1 cell growth in a cell viability assay.

D283 Med = type: functional, cell-based, Homo sapiens; conditions: Homo sapiens, D283 Med
Description: SANGER: Inhibition of human D-283MED cell growth in a cell viability assay.

ES8 = type: functional, cell-based, Homo sapiens; conditions: Homo sapiens, ES8;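 also: growth inhibition of human ES8 cells, read out with a cell viability assay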
Description: SANGER: Inhibition of human ES8 cell growth in a cell viability assay.

EOL1 = type: functional, cell-based, Homo sapiens; conditions: Homo sapiens, EOL1;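 also: growth inhibition of EoL-1 cells, read out by a cell viability assay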
Description: SANGER: Inhibition of human EoL-1-cell cell growth in a cell viability assay.

GB-1 = type: functional, cell-based, Homo sapiens; conditions: Homo sapiens, GB-1;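 also: growth of GB-1 cells judged by a viability assay, IC50 marks the concentration inhibiting growth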
Description: SANGER: Inhibition of human GB-1 cell growth in a cell viability assay.

GI-ME-N = type: functional, cell-based, Homo sapiens; conditions: Homo sapiens, GI-ME-N;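 also: growth inhibition of human GI-ME-N cells, read out with a cell viability assay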
Description: SANGER: Inhibition of human GI-ME-N cell growth in a cell viability assay.

GR-ST = type: functional, cell-based, Homo sapiens; conditions: Homo sapiens, GR-ST
Description: SANGER: Inhibition of human GR-ST cell growth in a cell viability assay.

HCE-4 = type: functional, cell-based; conditions: Homo sapiens;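 also: cell viability assay measuring inhibition of growth in the human HCE-4 cell line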
Description: SANGER: Inhibition of human HCE-4 cell growth in a cell viability assay.

HCE-T = type: functional, cell-based, Homo sapiens; conditions: Homo sapiens, HCE-T;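 also: cell viability assay read-out, reporting inhibition of HCE-T cell growth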
Description: SANGER: Inhibition of human HCE-T cell growth in a cell viability assay.

HD-MY-Z = type: functional, cell-based, Homo sapiens; conditions: Homo sapiens, HD-MY-Z;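 also: growth inhibition of HD-MY-Z cells, read out with a cell viability assay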
Description: SANGER: Inhibition of human HD-MY-Z cell growth in a cell viability assay.

JVM-3 = type: functional, cell-based, Homo sapiens; conditions: Homo sapiens, JVM-3;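 also: growth inhibition of human JVM-3 cells, read out with a cell viability assay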
Description: SANGER: Inhibition of human JVM-3 cell growth in a cell viability assay.

K5 = type: functional, cell-based, Homo sapiens; conditions: Homo sapiens, K5
Description: SANGER: Inhibition of human K5 cell growth in a cell viability assay.

KG-1 = type: functional, cell-based, Homo sapiens; conditions: Homo sapiens, KG-1;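 also: growth inhibition of KG-1 cells, read out by a cell viability assay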
Description: SANGER: Inhibition of human KG-1 cell growth in a cell viability assay.

KGN = type: functional, cell-based, Homo sapiens; conditions: Homo sapiens, KGN;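 also: growth inhibition of KGN cells, read out with a cell viability assay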
Description: SANGER: Inhibition of human KGN cell growth in a cell viability assay.

KNS-42 = type: functional, cell-based; conditions: Homo sapiens;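 also: growth inhibition of KNS-42 cells, read out with a cell viability assay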
Description: SANGER: Inhibition of human KNS-42 cell growth in a cell viability assay.

KS-1 = type: functional, cell-based; conditions: Homo sapiens;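 also: growth inhibition of KS-1 cells, read out with a cell viability assay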
Description: SANGER: Inhibition of human KS-1 cell growth in a cell viability assay.

KURAMOCHI = type: functional, cell-based, Homo sapiens; conditions: Homo sapiens, KURAMOCHI;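 also: growth inhibition of KURAMOCHI cells, read out with a cell viability assay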
Description: SANGER: Inhibition of human KURAMOCHI cell growth in a cell viability assay.

KY821 = type: functional, cell-based, Homo sapiens; conditions: Homo sapiens, KY821;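 also: growth inhibition of human KY821 cells, read out by a cell viability assay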
Description: SANGER: Inhibition of human KY821 cell growth in a cell viability assay.

LAMA-84 = type: functional, cell-based, Homo sapiens; conditions: Homo sapiens, LAMA-84;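 also: growth inhibition of LAMA-84 cells, read out with a cell viability assay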
Description: SANGER: Inhibition of human LAMA-84 cell growth in a cell viability assay.

LC-2-ad = type: functional, cell-based, Homo sapiens; conditions: Homo sapiens, LC-2-ad;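 also: growth inhibition of human LC-2-ad cells, read out with a cell viability assay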
Description: SANGER: Inhibition of human LC-2-ad cell growth in a cell viability assay.

LNCaP-Clone-FGC = type: functional, cell-based, Homo sapiens; conditions: Homo sapiens, LNCaP-Clone-FGC
Description: SANGER: Inhibition of human LNCaP-Clone-FGC cell growth in a cell viability assay.

LU-134-A = type: functional, cell-based, Homo sapiens; conditions: Homo sapiens, LU-134-A
Description: SANGER: Inhibition of human LU-134-A cell growth in a cell viability assay.

LU-139 = type: functional, cell-based, Homo sapiens; conditions: Homo sapiens, LU-139
Description: SANGER: Inhibition of human LU-139 cell growth in a cell viability assay.

MHH-PREB-1 = type: functional, cell-based, Homo sapiens; conditions: Homo sapiens, MHH-PREB-1;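 also: cell viability assay measuring inhibition of proliferation of human MHH-PREB-1 cells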
Description: SANGER: Inhibition of human MHH-PREB-1 cell growth in a cell viability assay.

MMAC-SF = type: functional, cell-based; conditions: Homo sapiens;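 also: growth inhibition of human MMAC-SF cells, read out with a cell viability assay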
Description: SANGER: Inhibition of human MMAC-SF cell growth in a cell viability assay.

MN-60 = type: functional, cell-based, Homo sapiens; conditions: Homo sapiens, MN-60;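 also: growth inhibition of the MN-60 cell line, determined with a cell viability assay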
Description: SANGER: Inhibition of human MN-60 cell growth in a cell viability assay.

MS-1 = type: functional, cell-based, Homo sapiens; conditions: Homo sapiens, MS-1;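 also: growth inhibition of MS-1 cells, read out by cell viability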
Description: SANGER: Inhibition of human MS-1 cell growth in a cell viability assay.

MZ7-mel = type: functional, cell-based, Homo sapiens; conditions: Homo sapiens, MZ7-mel;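 also: growth inhibition of human MZ7-mel cells, measured by a cell viability assay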
Description: SANGER: Inhibition of human MZ7-mel cell growth in a cell viability assay.

NB13 = type: functional, cell-based, Homo sapiens; conditions: Homo sapiens, NB13;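 also: cell viability readout measuring growth inhibition of human NB13 cells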
Description: SANGER: Inhibition of human NB13 cell growth in a cell viability assay.

NB6 = type: functional, cell-based, Homo sapiens; conditions: Homo sapiens, NB6;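 also: growth inhibition of NB6 cells, read out by a cell viability assay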
Description: SANGER: Inhibition of human NB6 cell growth in a cell viability assay.

NCI-H1092 = type: functional, cell-based, Homo sapiens; conditions: Homo sapiens, NCI-H1092;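 also: cell growth inhibition measured with a cell viability assay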
Description: SANGER: Inhibition of human NCI-H1092 cell growth in a cell viability assay.

NCI-H1838 = type: functional, cell-based, Homo sapiens; conditions: Homo sapiens, NCI-H1838;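 also: growth inhibition of NCI-H1838 cells, determined with a cell viability readout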
Description: SANGER: Inhibition of human NCI-H1838 cell growth in a cell viability assay.

NCI-H526 = type: functional, cell-based, Homo sapiens; conditions: Homo sapiens, NCI-H526;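 also: growth inhibition of the human NCI-H526 cell line, measured by a cell viability assay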
Description: SANGER: Inhibition of human NCI-H526 cell growth in a cell viability assay.

NCI-H69 = type: functional, cell-based, Homo sapiens; conditions: Homo sapiens, NCI-H69;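 also: growth inhibition of the cell line, read out with a cell viability assay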
Description: SANGER: Inhibition of human NCI-H69 cell growth in a cell viability assay.

NMC-G1 = type: functional, cell-based, Homo sapiens; conditions: Homo sapiens, NMC-G1;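 also: growth inhibition of the NMC-G1 cell line, measured with a cell viability read-out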
Description: SANGER: Inhibition of human NMC-G1 cell growth in a cell viability assay.

NOS-1 = type: functional, cell-based, Homo sapiens; conditions: Homo sapiens, NOS-1;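 also: growth inhibition of the human NOS-1 cell line, read out with a cell viability assay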
Description: SANGER: Inhibition of human NOS-1 cell growth in a cell viability assay.

ONS-76 = type: functional, cell-based, Homo sapiens; conditions: Homo sapiens, ONS-76;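 also: growth inhibition of human ONS-76 cells, read out with a cell viability assay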
Description: SANGER: Inhibition of human ONS-76 cell growth in a cell viability assay.

SF-126 = type: functional, cell-based, Homo sapiens; conditions: Homo sapiens, SF-126;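 also: growth inhibition of human SF126 cells, read out with a cell viability assay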
Description: SANGER: Inhibition of human SF126 cell growth in a cell viability assay.

SH-4 = type: functional, cell-based; conditions: Homo sapiens;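 also: growth inhibition of SH-4 cells, read out with a cell viability assay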
Description: SANGER: Inhibition of human SH-4 cell growth in a cell viability assay.

SJSA-1 = type: functional, cell-based, Homo sapiens; conditions: Homo sapiens, SJSA-1;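 also: growth inhibition of human SJSA-1 cells, read out through a cell viability measurement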
Description: SANGER: Inhibition of human SJSA-1 cell growth in a cell viability assay.

SK-MEL-2 = type: functional, cell-based, Homo sapiens; conditions: Homo sapiens, SK-MEL-2;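 also: growth inhibition of human SK-MEL-2 cells measured with a cell viability assay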
Description: SANGER: Inhibition of human SK-MEL-2 cell growth in a cell viability assay.

SW684 = type: functional, cell-based, Homo sapiens; conditions: Homo sapiens, SW684; read-out: IC50;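 also: growth inhibition of human SW684 cells, measured by a cell viability assay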
Description: SANGER: Inhibition of human SW684 cell growth in a cell viability assay.

697 = type: functional, cell-based, Homo sapiens; conditions: Homo sapiens
Description: SANGER: Inhibition of human 697 cell growth in a cell viability assay.

8-MG-BA = type: functional, cell-based, Homo sapiens; conditions: Homo sapiens, 8-MG-BA;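 also: growth inhibition of 8-MG-BA cells, read out with a cell viability assay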
Description: SANGER: Inhibition of human 8-MG-BA cell growth in a cell viability assay.

A101D = type: functional, cell-based, Homo sapiens; conditions: Homo sapiens, A101D;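 also: growth inhibition of the cell line, measured with a viability assay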
Description: SANGER: Inhibition of human A101D cell growth in a cell viability assay.

TE-9 = type: functional, cell-based, Homo sapiens; conditions: Homo sapiens, TE-9;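 also: cell growth inhibition, measured with a cell viability readout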
Description: SANGER: Inhibition of human TE-9 cell growth in a cell viability assay.

TK-10 = type: functional, cell-based, Homo sapiens; conditions: Homo sapiens, TK-10;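 also: growth inhibition of TK-10 cells, read out in a cell viability assay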
Description: SANGER: Inhibition of human TK10 cell growth in a cell viability assay.

U-266 = type: functional, cell-based, Homo sapiens; conditions: Homo sapiens, U-266
Description: SANGER: Inhibition of human U-266 cell growth in a cell viability assay.

VA-ES-BJ = type: functional, cell-based, Homo sapiens; conditions: Homo sapiens, VA-ES-BJ;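 also: growth inhibition of the VA-ES-BJ cell line, read out by a cell viability assay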
Description: SANGER: Inhibition of human VA-ES-BJ cell growth in a cell viability assay.

CAS-1 = type: functional, cell-based, Homo sapiens; conditions: Homo sapiens, CAS-1;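 also: growth inhibition of CAS-1 cells, measured with a cell viability assay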
Description: SANGER: Inhibition of human CAS-1 cell growth in a cell viability assay.

CCRF-CEM = type: functional, cell-based, Homo sapiens; conditions: Homo sapiens, CCRF-CEM;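 also: inhibition of CCRF-CEM cell growth, measured by a cell viability assay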
Description: SANGER: Inhibition of human CCRF-CEM cell growth in a cell viability assay.

Compound: COc1ccc(-c2cc3nccn3c(Nc3ncccc3C(N)=O)n2)cc1OC
- IC50 (CTV-1): 1500 nM
- IC50 (D283 Med): > 8000 nM
- IC50 (ES8): 5980 nM
- IC50 (EOL1): 333 nM
- IC50 (GB-1): 2830 nM
- IC50 (GI-ME-N): > 8000 nM
- IC50 (GR-ST): 3700 nM
- IC50 (HCE-4): 5020 nM
- IC50 (HCE-T): > 8000 nM
- IC50 (HD-MY-Z): > 8000 nM
- IC50 (JVM-3): > 8000 nM
- IC50 (K5): 2930 nM
- IC50 (KG-1): 2870 nM
- IC50 (KGN): 1540 nM
- IC50 (KNS-42): > 8000 nM
- IC50 (KS-1): 2780 nM
- IC50 (KURAMOCHI): 7410 nM
- IC50 (KY821): > 8000 nM
- IC50 (LAMA-84): > 8000 nM
- IC50 (LC-2-ad): 1820 nM
- IC50 (LNCaP-Clone-FGC): 2180 nM
- IC50 (LU-134-A): 4320 nM
- IC50 (LU-139): > 8000 nM
- IC50 (MHH-PREB-1): 2550 nM
- IC50 (MMAC-SF): > 8000 nM
- IC50 (MN-60): > 8000 nM
- IC50 (MS-1): 7700 nM
- IC50 (MZ7-mel): > 8000 nM
- IC50 (NB13): 3240 nM
- IC50 (NB6): > 8000 nM
- IC50 (NCI-H1092): > 8000 nM
- IC50 (NCI-H1838): > 8000 nM
- IC50 (NCI-H526): 5280 nM
- IC50 (NCI-H69): > 8000 nM
- IC50 (NMC-G1): 7550 nM
- IC50 (NOS-1): 481 nM
- IC50 (ONS-76): > 8000 nM
- IC50 (SF-126): > 8000 nM
- IC50 (SH-4): > 8000 nM
- IC50 (SJSA-1): 3770 nM
- IC50 (SK-MEL-2): 1890 nM
- IC50 (SW684): > 8000 nM
- IC50 697: 582 nM
- IC50 (8-MG-BA): > 8000 nM
- IC50 (A101D): 4870 nM
- IC50 (TE-9): > 8000 nM
- IC50 (TK-10): 6960 nM
- IC50 (U-266): 4710 nM
- IC50 (VA-ES-BJ): > 8000 nM
- IC50 (CAS-1): 4500 nM
- IC50 (CCRF-CEM): 1980 nM

Compound: COC(=O)[C@H](CCSC)NC(=O)c1ccc(NC[C@@H](N)CS)cc1-c1ccccc1
- IC50 (CTV-1): > 1020 nM
- IC50 (D283 Med): > 1020 nM
- IC50 (ES8): > 1020 nM
- IC50 (EOL1): > 1020 nM
- IC50 (GB-1): > 1020 nM
- IC50 (GI-ME-N): > 1020 nM
- IC50 (GR-ST): > 1020 nM
- IC50 (HCE-4): > 1020 nM
- IC50 (HCE-T): > 1020 nM
- IC50 (HD-MY-Z): > 1020 nM
- IC50 (JVM-3): > 1020 nM
- IC50 (K5): > 1020 nM
- IC50 (KG-1): > 1020 nM
- IC50 (KGN): > 1020 nM
- IC50 (KNS-42): > 1020 nM
- IC50 (KS-1): > 1020 nM
- IC50 (KURAMOCHI): > 1020 nM
- IC50 (KY821): > 1020 nM
- IC50 (LAMA-84): > 1020 nM
- IC50 (LC-2-ad): > 1020 nM
- IC50 (LNCaP-Clone-FGC): > 1020 nM
- IC50 (LU-134-A): > 1020 nM
- IC50 (LU-139): > 1020 nM
- IC50 (MHH-PREB-1): > 1020 nM
- IC50 (MMAC-SF): > 1020 nM
- IC50 (MN-60): > 1020 nM
- IC50 (MS-1): > 1020 nM
- IC50 (MZ7-mel): > 1020 nM
- IC50 (NB13): > 1020 nM
- IC50 (NB6): > 1020 nM
- IC50 (NCI-H1092): > 1020 nM
- IC50 (NCI-H1838): > 1020 nM
- IC50 (NCI-H526): > 1020 nM
- IC50 (NCI-H69): > 1020 nM
- IC50 (NMC-G1): > 1020 nM
- IC50 (NOS-1): > 1020 nM
- IC50 (ONS-76): 838 nM
- IC50 (SF-126): > 1020 nM
- IC50 (SH-4): > 1020 nM
- IC50 (SJSA-1): > 1020 nM
- IC50 (SK-MEL-2): > 1020 nM
- IC50 (SW684): > 1020 nM
- IC50 697: > 1020 nM
- IC50 (8-MG-BA): > 1020 nM
- IC50 (A101D): > 1020 nM
- IC50 (TE-9): > 1020 nM
- IC50 (TK-10): > 1020 nM
- IC50 (U-266): > 1020 nM
- IC50 (VA-ES-BJ): > 1020 nM
- IC50 (CAS-1): > 1020 nM
- IC50 (CCRF-CEM): > 1020 nM

Compound: NC(=O)c1cccc(-c2cc(Nc3ccc(OC(F)(F)F)cc3)ncn2)c1
- IC50 (CTV-1): > 1280 nM
- IC50 (D283 Med): > 1280 nM
- IC50 (ES8): > 1280 nM
- IC50 (EOL1): > 1280 nM
- IC50 (GB-1): > 1280 nM
- IC50 (GI-ME-N): > 1280 nM
- IC50 (GR-ST): > 1280 nM
- IC50 (HCE-4): > 1280 nM
- IC50 (HCE-T): > 1280 nM
- IC50 (HD-MY-Z): > 1280 nM
- IC50 (JVM-3): > 1280 nM
- IC50 (K5): > 1280 nM
- IC50 (KG-1): > 1280 nM
- IC50 (KGN): > 1280 nM
- IC50 (KNS-42): > 1280 nM
- IC50 (KS-1): > 1280 nM
- IC50 (KURAMOCHI): > 1280 nM
- IC50 (KY821): > 1280 nM
- IC50 (LAMA-84): 163 nM
- IC50 (LC-2-ad): > 1280 nM
- IC50 (LNCaP-Clone-FGC): > 1280 nM
- IC50 (LU-134-A): > 1280 nM
- IC50 (LU-139): > 1280 nM
- IC50 (MHH-PREB-1): > 1280 nM
- IC50 (MMAC-SF): > 1280 nM
- IC50 (MN-60): > 1280 nM
- IC50 (MS-1): > 1280 nM
- IC50 (MZ7-mel): > 1280 nM
- IC50 (NB13): > 1280 nM
- IC50 (NB6): > 1280 nM
- IC50 (NCI-H1092): > 1280 nM
- IC50 (NCI-H1838): > 1280 nM
- IC50 (NCI-H526): > 1280 nM
- IC50 (NCI-H69): > 1280 nM
- IC50 (NMC-G1): > 1280 nM
- IC50 (NOS-1): 571 nM
- IC50 (ONS-76): > 1280 nM
- IC50 (SF-126): > 1280 nM
- IC50 (SH-4): > 1280 nM
- IC50 (SJSA-1): > 1280 nM
- IC50 (SK-MEL-2): > 1280 nM
- IC50 (SW684): > 1280 nM
- IC50 697: > 1280 nM
- IC50 (8-MG-BA): > 1280 nM
- IC50 (A101D): > 1280 nM
- IC50 (TE-9): > 1280 nM
- IC50 (TK-10): > 1280 nM
- IC50 (U-266): > 1280 nM
- IC50 (VA-ES-BJ): > 1280 nM
- IC50 (CAS-1): > 1280 nM
- IC50 (CCRF-CEM): > 1280 nM
